Experimental data published in EP0390718A1, “Process for preparing new 1-diphenylmethylpiperidine derivatives” (FABRICA ESPANOLA DE PRODUCTOS QUIMICOS Y FARMACEUTICOS, …, priority 1989, dated 1990).

How the values were obtained:
Swiss male mice = test: preliminary study of the main pharmacologic effects, observation of symptoms and reflexes in mice; format: in vivo; conditions: 300 mg/kg
Method: A preliminary study has been made of the main pharmacologic effects using Swiss male mice distributed in groups of four animals; each group was administered one of the products in doses of 300 mg/kg and the animals began to be observed, logging the time when symptoms appeared or given reflexes decreased: spontaneous activity, appearance of stereotype, trembling, convulsions, abnormal body position, loss of reflexes, extent of palpebral aperture, salivation, pyloerection, hypothermia, lachrymation or change in skin colour; observation lasted for 30 minutes and was repeated 1, 2, 3, 4 and 24 hours after treatment; the reference compound chosen was a well-known antiallergic, ketotyphene.

[1] = target: guinea pig isolated ileum contractions caused by histamine (Cavia porcellus, UniProt P31389); test: guinea pig isolated ileum contractions caused by histamine (in vitro antihistaminic activity); format: cell-based; conditions: drug concentration inhibiting 50% of the response to histamine; 10 minutes of incubation with each concentration; Tyrode solution at 37°C; unit M only printed in method b12 (10⁻⁸-10⁻⁵ M); read-out: CI50 (the source's name)
Sequence of guinea pig isolated ileum contractions caused by histamine (P31389 whole entry): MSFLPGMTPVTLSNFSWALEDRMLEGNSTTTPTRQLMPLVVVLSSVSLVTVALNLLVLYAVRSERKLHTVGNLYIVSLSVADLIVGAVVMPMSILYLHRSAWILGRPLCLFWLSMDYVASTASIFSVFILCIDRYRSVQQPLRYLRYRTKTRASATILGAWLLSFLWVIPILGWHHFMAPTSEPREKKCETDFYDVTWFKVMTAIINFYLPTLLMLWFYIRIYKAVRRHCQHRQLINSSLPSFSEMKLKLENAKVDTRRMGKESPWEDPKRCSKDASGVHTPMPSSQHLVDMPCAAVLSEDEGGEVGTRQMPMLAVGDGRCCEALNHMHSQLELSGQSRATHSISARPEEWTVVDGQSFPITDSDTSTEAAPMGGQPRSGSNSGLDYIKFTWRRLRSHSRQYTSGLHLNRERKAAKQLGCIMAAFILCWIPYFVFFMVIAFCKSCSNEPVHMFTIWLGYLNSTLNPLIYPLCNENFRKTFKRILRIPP

[2] = Swiss male mice, groups of four, observed 30 minutes and 1, 2, 3, 4 and 24 hours after treatment

1-[(4-chlorophenyl)methyl]-N-[1-(diphenylmethyl)piperidine-4-yl]-2-amino-1 H-benzimidazol [Example 4]
Maximum effect observed/No. of animals Decreased spontaneous activity (Swiss male mice; [2]): 0
IC50 [1]: 0.063 µM

CN1CCC(=C2c3ccccc3CC(=O)c3sccc32)CC1 [Ketotiphene]
Maximum effect observed/No. of animals Body reflex loss (Swiss male mice; [2]): 1/4
Maximum effect observed/No. of animals Decreased spontaneous activity (Swiss male mice; [2]): 2/4
Maximum effect observed/No. of animals Hearing reflex loss (Swiss male mice; mouse, in vivo): -
Maximum effect observed/No. of animals Hypothermia (Swiss male mice; mouse, in vivo): 4/4
Maximum effect observed/No. of animals Palpebral potosis (Swiss male mice; mouse, in vivo): 1/4

N-[(1-diphenylmethyl)piperidine-4-yl]-1-[(4-fluorophenyl)methyl]-2-amino-1 H-benzimidazol [Example 5]
Maximum effect observed/No. of animals Decreased spontaneous activity (Swiss male mice; [2]): 0
IC50 [1]: 0.056 µM
